Experimental data from ChEMBL document CHEMBL5465560, “Selectivity Literature for EUbOPEN Chemogenomic Library” (2024).

Assays:
D(3) dopamine receptor = D(3) dopamine receptor (Homo sapiens, UniProt P35462); assay: Selectivity interaction (Eurofins CEREP Diversity Profile (receptors and ion channels)) EUB0000279b DRD3; settings: at 10 µM
[1] = system: Tyrosine-protein kinase ABL1 (Homo sapiens), P00519 [E255K]; assay: (§1) Selectivity interaction (KinomeScan (DiscoverX)) EUB0001079a ABL1; settings: at 1 µM
[2] = system: Tyrosine-protein kinase ABL1 (Homo sapiens), P00519 [Q252H]; assay: as §1; settings: at 1 µM
[3] = system: Tyrosine-protein kinase ABL1 (Homo sapiens), P00519 [M351T]; assay: as §1; settings: at 1 µM
[4] = system: Tyrosine-protein kinase ABL1 (Homo sapiens), P00519 [F317L]; assay: as §1; settings: at 1 µM
[5] = system: Tyrosine-protein kinase ABL1 (Homo sapiens), P00519 [Y253F]; assay: as §1; settings: at 1 µM
[6] = system: Tyrosine-protein kinase ABL1 (Homo sapiens), P00519 [H396P]; assay: as §1; settings: at 1 µM
[7] = system: Tyrosine-protein kinase ABL1 (Homo sapiens), P00519 [T315I]; assay: as §1; settings: at 1 µM
[8] = system: Tyrosine-protein kinase ABL1 (Homo sapiens), P00519 [F317I]; assay: as §1; settings: at 1 µM
[9] = biological target: Tyrosine-protein kinase ABL1 (Homo sapiens, UniProt P00519); assay: as §1; settings: at 1 µM
[10] = biological target: T1, Serine/threonine-protein kinase RIO1 (Homo sapiens) (UniProt Q9BRS2); settings: at 10 µM
T1 sequence (whole entry): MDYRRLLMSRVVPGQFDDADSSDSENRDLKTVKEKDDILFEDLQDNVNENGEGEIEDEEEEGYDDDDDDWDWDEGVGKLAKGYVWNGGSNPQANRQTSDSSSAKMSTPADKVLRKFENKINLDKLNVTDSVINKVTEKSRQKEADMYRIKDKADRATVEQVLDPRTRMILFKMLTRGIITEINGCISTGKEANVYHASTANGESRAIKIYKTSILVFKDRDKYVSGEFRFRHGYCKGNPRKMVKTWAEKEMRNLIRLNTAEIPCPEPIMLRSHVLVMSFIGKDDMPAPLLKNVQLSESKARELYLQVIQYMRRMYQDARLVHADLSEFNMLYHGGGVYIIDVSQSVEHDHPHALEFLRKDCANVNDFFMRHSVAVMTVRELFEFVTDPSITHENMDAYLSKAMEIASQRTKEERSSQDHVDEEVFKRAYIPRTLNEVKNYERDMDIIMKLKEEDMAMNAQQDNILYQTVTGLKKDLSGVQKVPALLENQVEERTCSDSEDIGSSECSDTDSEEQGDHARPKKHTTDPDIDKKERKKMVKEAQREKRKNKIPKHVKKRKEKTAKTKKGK

[11] = biological target: Tyrosine-protein kinase ABL2 (Homo sapiens, UniProt P42684); assay: Selectivity interaction (ActivX KiNativ screen (kinase selectivity in THP-1 cell lysates)) EUB0000639a ABL2; assay type: subcellular; settings: lysate, at 0.04 µM
[12] = biological target: T2, Ephrin type-B receptor 3 (Homo sapiens) (UniProt P54753); assay: Selectivity interaction (ActivX KiNativ screen (kinase selectivity in THP-1 cell lysates)) EUB0000639a EPHB3; assay type: subcellular; settings: lysate
T2 sequence (whole entry): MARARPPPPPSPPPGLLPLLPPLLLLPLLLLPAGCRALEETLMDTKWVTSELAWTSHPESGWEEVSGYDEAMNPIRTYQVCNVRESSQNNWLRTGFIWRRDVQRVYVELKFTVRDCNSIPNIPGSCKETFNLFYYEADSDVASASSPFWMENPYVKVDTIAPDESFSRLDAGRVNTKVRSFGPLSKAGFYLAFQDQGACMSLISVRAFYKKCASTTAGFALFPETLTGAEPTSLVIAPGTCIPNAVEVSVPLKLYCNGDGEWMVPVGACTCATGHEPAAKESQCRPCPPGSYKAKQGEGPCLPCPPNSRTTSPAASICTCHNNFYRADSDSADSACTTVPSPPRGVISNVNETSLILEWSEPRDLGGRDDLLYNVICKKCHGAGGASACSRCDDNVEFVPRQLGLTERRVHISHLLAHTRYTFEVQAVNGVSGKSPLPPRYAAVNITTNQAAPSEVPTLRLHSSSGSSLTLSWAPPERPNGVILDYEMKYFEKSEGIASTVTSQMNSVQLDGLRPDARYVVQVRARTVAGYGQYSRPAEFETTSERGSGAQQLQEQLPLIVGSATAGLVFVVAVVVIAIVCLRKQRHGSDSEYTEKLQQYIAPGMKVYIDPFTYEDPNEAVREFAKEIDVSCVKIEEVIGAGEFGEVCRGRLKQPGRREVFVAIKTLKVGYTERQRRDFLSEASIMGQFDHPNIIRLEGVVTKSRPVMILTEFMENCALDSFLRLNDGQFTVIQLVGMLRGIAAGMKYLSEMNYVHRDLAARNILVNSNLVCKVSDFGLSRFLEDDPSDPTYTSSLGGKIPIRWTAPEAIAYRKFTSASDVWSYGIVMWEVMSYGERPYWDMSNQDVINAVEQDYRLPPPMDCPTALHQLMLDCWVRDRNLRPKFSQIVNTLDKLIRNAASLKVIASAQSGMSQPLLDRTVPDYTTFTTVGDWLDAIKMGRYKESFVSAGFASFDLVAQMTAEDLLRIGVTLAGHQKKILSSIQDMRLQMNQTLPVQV

[13] = biological target: T3, Serine/threonine-protein kinase Chk1 (Homo sapiens) (UniProt O14757); assay: Selectivity interaction (KinomeScan (DiscoverX)) EUB0000618a CHEK1; settings: at 10 µM
T3 sequence (whole entry): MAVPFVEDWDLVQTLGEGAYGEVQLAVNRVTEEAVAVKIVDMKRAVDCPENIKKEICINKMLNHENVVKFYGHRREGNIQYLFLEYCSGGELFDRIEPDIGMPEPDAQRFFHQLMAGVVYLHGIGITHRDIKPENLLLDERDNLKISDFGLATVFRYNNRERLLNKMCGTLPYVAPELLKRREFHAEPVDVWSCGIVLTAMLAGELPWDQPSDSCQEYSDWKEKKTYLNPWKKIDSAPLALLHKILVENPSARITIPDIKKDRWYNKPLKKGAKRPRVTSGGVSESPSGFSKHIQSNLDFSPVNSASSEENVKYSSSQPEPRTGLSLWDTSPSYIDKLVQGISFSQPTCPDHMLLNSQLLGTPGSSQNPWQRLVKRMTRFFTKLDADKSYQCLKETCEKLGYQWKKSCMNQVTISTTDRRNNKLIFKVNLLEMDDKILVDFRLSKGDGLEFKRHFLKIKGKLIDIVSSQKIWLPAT

[14] = biological target: Tyrosine-protein kinase BTK (Homo sapiens, UniProt Q06187); settings: at 10 µM
[15] = biological target: Death-associated protein kinase 3 (Homo sapiens) (UniProt O43293); assay: Selectivity interaction (KinomeScan (DiscoverX)) EUB0000655a DAPK3; settings: at 10 µM
[16] = biological target: Serine/threonine-protein kinase SIK1 (Homo sapiens) (UniProt P57059); assay: Selectivity interaction (Kinase panel (Carna Biosciences)) EUB0001542aTs SIK1; settings: at 1 µM
Chain of Serine/threonine-protein kinase SIK1 (Homo sapiens) (P57059 whole entry): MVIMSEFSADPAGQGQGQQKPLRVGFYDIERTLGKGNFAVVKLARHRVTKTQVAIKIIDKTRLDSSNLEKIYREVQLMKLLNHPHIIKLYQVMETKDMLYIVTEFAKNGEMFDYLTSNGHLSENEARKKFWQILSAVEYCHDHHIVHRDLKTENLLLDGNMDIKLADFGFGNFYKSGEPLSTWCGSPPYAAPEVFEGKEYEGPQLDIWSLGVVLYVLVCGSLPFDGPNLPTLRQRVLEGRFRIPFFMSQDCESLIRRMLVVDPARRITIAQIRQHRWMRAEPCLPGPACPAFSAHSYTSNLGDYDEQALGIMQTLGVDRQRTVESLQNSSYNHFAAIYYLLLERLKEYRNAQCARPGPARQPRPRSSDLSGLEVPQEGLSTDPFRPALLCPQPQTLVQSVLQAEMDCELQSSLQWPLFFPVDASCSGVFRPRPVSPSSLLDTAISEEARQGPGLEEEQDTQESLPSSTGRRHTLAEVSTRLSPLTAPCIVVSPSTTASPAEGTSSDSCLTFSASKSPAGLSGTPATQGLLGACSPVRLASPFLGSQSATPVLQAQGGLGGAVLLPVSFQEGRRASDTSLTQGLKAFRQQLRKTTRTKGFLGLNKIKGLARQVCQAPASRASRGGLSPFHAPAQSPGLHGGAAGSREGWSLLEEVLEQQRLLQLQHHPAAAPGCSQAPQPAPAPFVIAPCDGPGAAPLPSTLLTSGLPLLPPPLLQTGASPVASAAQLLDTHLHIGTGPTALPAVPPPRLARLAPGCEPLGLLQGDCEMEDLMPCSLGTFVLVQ

Chain of Tyrosine-protein kinase ABL2 (P42684 whole entry): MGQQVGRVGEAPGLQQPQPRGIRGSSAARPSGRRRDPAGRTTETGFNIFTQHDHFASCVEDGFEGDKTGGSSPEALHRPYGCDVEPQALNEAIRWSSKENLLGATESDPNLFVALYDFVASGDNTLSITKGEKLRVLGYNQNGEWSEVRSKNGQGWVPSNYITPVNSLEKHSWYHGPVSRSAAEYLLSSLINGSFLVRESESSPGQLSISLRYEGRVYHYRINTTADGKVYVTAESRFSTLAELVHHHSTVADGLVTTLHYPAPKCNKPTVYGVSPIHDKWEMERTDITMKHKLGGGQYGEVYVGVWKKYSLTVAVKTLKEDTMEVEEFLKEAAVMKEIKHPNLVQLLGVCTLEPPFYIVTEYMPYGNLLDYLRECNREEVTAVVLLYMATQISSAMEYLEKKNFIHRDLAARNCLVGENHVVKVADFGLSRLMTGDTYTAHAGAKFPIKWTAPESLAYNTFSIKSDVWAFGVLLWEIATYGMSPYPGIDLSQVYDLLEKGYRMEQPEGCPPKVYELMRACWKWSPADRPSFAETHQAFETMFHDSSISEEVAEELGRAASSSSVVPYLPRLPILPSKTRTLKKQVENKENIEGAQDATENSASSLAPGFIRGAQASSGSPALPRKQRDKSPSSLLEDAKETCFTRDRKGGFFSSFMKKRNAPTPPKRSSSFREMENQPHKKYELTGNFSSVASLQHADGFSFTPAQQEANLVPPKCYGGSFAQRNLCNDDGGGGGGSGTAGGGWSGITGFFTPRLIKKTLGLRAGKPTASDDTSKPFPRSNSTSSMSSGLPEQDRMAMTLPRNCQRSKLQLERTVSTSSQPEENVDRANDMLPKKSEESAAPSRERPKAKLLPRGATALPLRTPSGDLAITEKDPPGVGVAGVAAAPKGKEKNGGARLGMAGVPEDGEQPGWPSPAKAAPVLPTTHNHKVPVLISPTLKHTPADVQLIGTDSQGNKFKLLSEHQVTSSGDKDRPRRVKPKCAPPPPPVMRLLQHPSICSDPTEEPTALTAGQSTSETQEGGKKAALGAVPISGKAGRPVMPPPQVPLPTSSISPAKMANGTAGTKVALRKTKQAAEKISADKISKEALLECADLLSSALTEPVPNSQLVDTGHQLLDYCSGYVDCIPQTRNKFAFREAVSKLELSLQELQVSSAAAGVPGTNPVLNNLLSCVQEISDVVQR
Chain of Tyrosine-protein kinase BTK (Q06187 whole entry): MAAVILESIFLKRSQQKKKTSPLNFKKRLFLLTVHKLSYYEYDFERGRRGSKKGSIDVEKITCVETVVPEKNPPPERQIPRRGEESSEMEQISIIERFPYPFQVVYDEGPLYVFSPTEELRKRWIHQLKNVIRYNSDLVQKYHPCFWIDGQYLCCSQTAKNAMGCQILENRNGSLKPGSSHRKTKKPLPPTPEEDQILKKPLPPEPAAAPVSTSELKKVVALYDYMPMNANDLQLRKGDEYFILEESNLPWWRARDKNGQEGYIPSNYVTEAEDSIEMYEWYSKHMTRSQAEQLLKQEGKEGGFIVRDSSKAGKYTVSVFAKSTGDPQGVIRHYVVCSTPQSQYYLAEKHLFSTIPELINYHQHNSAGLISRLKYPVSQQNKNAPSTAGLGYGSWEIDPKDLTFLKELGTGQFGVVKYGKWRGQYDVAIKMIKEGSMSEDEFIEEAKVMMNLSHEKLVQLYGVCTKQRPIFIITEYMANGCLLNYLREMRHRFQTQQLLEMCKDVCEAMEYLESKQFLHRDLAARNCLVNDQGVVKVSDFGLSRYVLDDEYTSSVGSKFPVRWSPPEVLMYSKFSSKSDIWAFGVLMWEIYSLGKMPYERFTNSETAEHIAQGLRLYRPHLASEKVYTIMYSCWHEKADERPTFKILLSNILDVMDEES
Chain of Death-associated protein kinase 3 (Homo sapiens) (O43293 whole entry, looked up): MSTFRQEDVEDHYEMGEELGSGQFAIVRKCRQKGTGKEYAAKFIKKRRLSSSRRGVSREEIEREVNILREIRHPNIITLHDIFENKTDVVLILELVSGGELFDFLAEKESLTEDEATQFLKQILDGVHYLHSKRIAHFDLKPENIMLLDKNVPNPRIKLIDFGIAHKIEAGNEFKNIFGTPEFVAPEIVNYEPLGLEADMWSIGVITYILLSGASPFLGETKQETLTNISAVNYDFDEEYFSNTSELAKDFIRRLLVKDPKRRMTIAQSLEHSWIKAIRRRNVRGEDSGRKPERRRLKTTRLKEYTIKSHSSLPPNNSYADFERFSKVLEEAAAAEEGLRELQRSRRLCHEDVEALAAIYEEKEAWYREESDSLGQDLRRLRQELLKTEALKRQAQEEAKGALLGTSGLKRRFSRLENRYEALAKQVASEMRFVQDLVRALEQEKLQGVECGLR
Chain of D(3) dopamine receptor (P35462 whole entry): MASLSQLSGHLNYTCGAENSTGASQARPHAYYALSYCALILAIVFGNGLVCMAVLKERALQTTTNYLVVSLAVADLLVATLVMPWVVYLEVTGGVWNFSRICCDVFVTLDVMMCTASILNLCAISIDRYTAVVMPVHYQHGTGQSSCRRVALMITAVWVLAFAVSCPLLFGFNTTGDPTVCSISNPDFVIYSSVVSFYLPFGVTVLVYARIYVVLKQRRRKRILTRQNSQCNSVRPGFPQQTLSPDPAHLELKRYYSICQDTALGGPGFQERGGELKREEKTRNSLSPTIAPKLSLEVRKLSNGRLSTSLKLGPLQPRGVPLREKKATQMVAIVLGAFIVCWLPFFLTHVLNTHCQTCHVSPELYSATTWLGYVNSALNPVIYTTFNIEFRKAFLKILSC

CC(=O)c1cc(-c2ccccc2OCC2CC2)c2ncccn12
% of control (D(3) dopamine receptor): 81%

Nc1cnc(N2CCc3cc(S(=O)(=O)Nc4c(F)cc(Cl)cc4F)cc(N4CCCC4=O)c32)nc1 [TP-020n]
% of control [1]: 85% | % of control [2]: 100% | % of control [3]: 100% | % of control [4]: 99% | % of control [5]: 94% | % of control [6]: 94% | % of control [7]: 100% | % of control [8]: 100% | % of control [9]: 100%

CCN(CC)CCCCNc1ncc2cc(-c3cc(OC)cc(OC)c3)c(NC(=O)NC(C)(C)C)nc2n1
% of control [10]: 100%

CC[C@@H]1[C@H](F)C(=O)N[C@@H]1COc1nccc2cc(C(N)=O)c(OC)cc12 [ZIMLOVISERTIB]
% of inhibition [11]: -16.4% | % of inhibition ([12]; at 0.01 µM): -3.9% | % of inhibition ([12]; at 0.04 µM): -40.1% | % of inhibition ([12]; at 0.2 µM): -48.3% | % of inhibition ([12]; at 1 µM): -34.8% | % of inhibition ([12]; at 5 µM): -22.6%

O[C@H]1CC[C@H](Nc2ncc3nc(Nc4c(F)cc(F)cc4F)n([C@H]4CCOC4)c3n2)CC1
% of control [13]: 97%

Cc1cc([C@@H](C)Nc2ccccc2C(=O)O)c2nc(N3CCOCC3)cc(=O)n2c1 [AZD-6482]
% of control [14]: 97%

CN(C)CCOc1ccc(-c2nc(-c3ccncc3)c(-c3ccc4c(c3)CC/C4=N\O)[nH]2)cc1
% of control [15]: 89%

Cn1cc(Nc2nccc(N3CC4CCC(C3)N4C(=O)[C@@H]3CC3(F)F)n2)cn1
% of inhibition [16]: 77%
